Experimental data: PMC9569420 (Communications Biology, 2022)
pIC50: −log10 of the molar value. “And” between values parts separate entries of the source, which are not always exact repeats. Identical values can stand only once.

Assays:
ASK1/MAP3K5 = target: T1, ASK1/MAP3K5 (Homo sapiens, UniProt Q99683); assay: HotSpot kinase assay; format: biochemical; settings: read-out: % Enzyme Activity (relative to DMSO controls)
T1 construct: purchased Reaction Biology Corporation

HSV-2(G) [1] = assay: HSV binding assay (gD western blot), HaCat cells; format: cell-based; settings: 10 μM, 4 h at 4 °C
Protocol: After 48 h incubation, plaques were counted by immunoassay using an anti–human IgG antibody peroxidase conjugate (PA1-86064, Thermo Fisher)[33]. […] Western blots were prepared and probed for gD as a marker of bound virus and β-actin as a control.

EPHA4 = target: T2, EPHA4 (Homo sapiens, UniProt P54764); assay: HotSpot kinase assay; format: biochemical; settings: read-out: % Enzyme Activity (relative to DMSO controls)
T2 construct: purchased Reaction Biology Corporation

ERK7/MAPK15 = target: T3, ERK7/MAPK15 (Homo sapiens, UniProt Q8TD08); assay: HotSpot kinase assay; format: biochemical; settings: read-out: % Enzyme Activity (relative to DMSO controls)
T3 construct: purchased Reaction Biology Corporation
T3 sequence (Q8TD08 whole entry): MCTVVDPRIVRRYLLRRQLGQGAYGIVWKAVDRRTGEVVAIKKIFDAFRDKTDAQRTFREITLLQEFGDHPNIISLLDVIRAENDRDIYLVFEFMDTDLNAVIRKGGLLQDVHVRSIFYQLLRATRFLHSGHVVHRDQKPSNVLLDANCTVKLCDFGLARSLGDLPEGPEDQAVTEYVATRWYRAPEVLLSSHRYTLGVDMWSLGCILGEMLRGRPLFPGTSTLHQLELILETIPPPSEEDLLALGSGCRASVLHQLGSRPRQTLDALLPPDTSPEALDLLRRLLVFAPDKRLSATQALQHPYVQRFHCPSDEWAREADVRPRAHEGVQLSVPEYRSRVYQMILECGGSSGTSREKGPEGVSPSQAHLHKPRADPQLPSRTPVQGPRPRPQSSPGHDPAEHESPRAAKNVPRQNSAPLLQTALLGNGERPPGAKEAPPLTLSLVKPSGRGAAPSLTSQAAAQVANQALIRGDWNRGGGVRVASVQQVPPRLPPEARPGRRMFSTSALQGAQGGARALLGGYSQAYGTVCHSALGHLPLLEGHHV

CDK14/cyclin Y (PFTK1) = target: T4, CDK14/cyclin Y (PFTK1) (Homo sapiens, UniProt O94921); assay: HotSpot kinase assay; format: biochemical; settings: read-out: % Enzyme Activity (relative to DMSO controls)
T4 construct: purchased Reaction Biology Corporation

CK1g3 = target: T5, CK1g3 (Homo sapiens, UniProt Q9Y6M4); assay: HotSpot kinase assay; format: biochemical; settings: read-out: % Enzyme Activity (relative to DMSO controls)
T5 construct: purchased Reaction Biology Corporation

EIF2AK2 = target: T6, EIF2AK2 (Homo sapiens, UniProt P19525); assay: HotSpot kinase assay; format: biochemical; settings: read-out: % Enzyme Activity (relative to DMSO controls)
T6 construct: purchased Reaction Biology Corporation

AXL = target: T7, AXL (Homo sapiens, UniProt P30530); assay: HotSpot kinase assay; format: biochemical; settings: read-out: % Enzyme Activity (relative to DMSO controls)
T7 construct: purchased Reaction Biology Corporation
T7 sequence (P30530 26-894): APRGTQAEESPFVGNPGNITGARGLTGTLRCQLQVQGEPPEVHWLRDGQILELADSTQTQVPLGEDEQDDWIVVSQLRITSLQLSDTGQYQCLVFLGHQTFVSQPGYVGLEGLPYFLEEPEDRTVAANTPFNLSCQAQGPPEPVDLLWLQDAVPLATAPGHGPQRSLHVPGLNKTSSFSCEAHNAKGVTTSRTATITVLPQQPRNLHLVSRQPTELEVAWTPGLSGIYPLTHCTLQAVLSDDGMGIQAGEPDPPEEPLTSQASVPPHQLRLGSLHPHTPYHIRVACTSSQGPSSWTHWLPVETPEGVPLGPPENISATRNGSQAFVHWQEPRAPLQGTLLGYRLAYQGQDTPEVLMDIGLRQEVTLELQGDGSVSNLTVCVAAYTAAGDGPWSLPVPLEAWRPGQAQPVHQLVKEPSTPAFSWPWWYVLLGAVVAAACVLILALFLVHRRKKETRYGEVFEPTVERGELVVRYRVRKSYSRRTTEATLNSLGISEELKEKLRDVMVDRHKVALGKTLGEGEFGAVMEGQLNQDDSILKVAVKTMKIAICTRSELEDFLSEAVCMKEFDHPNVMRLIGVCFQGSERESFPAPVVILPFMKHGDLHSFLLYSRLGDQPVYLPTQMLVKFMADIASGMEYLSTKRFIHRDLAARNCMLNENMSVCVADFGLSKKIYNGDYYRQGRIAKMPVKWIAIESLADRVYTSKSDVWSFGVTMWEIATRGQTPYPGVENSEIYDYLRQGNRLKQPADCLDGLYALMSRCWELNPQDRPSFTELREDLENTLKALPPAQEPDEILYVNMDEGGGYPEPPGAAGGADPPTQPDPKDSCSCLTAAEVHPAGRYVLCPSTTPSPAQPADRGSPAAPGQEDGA

AKT1 = target: T8, AKT1 (Homo sapiens, UniProt P31749); assay: biochemical
T8 construct: purchased Reaction Biology Corporation
T8 sequence (P31749 whole entry): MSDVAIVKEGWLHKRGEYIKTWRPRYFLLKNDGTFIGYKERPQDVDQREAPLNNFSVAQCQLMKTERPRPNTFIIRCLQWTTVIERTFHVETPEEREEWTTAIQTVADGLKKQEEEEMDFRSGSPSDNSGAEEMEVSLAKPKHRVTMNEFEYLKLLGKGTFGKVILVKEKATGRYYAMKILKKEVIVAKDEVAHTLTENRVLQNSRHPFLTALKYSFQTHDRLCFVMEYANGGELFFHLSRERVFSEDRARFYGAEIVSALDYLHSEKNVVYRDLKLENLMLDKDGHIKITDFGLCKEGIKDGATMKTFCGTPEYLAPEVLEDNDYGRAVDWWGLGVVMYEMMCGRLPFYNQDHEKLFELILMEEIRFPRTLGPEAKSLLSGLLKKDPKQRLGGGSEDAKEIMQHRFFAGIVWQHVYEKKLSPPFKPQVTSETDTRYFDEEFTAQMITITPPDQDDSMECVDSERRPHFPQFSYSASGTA

HSV-2(G) [2] = assay: synchronized infection (entry) assay, HaCat cells; format: cell-based; settings: 10 μM
Protocol: To quantify viral entry, cells were synchronously infected by allowing virus to bind to cells at 4°C for 4 h, washed, and then transferred to 37 °C. CIMSS or control DMSO was added at the time of temperature shift. At indicated times post-temperature shift, the cells were treated with a low pH buffer to inactivate virus that had not penetrated, washed, overlaid with medium containing methyl cellulose and viral plaques were counted at 48 h. Entry was also assessed by immunoblotting nuclear extracts for VP16. […] Nuclear extracts were prepared after 1 h and analyzed by western blot with antibodies targeting VP16, histone H1 and golgin-97[5]. The non-nuclear fraction was also probed for golgin-97 as a positive control. […] After 1 or 4 h of incubation, the cells were fixed. Plasma membranes were stained using Image -IT^TM LIVE Plasma Membrane kit and nuclei were stained with DAPI (Thermo Fisher Scientific, Cat 134406). The percentage of GFP + nuclei was determined by counting ~200 cells over 3–4 fields. Images were obtained with Leica SP8 microscope (objective 63 × 1.4); xz images were captured with optical slice 0.6 µm, 25–30 slices per image.

FGFR4 = target: T9, FGFR4 (Homo sapiens, UniProt P22455); assay: HotSpot kinase assay; format: biochemical; settings: read-out: % Enzyme Activity (relative to DMSO controls)
T9 construct: purchased Reaction Biology Corporation

LCK2/ICK = target: T10, LCK2/ICK (Homo sapiens, UniProt Q9UPZ9); assay: HotSpot kinase assay; format: biochemical; settings: read-out: % Enzyme Activity (relative to DMSO controls)
T10 construct: purchased Reaction Biology Corporation
T10 sequence (Q9UPZ9 whole entry): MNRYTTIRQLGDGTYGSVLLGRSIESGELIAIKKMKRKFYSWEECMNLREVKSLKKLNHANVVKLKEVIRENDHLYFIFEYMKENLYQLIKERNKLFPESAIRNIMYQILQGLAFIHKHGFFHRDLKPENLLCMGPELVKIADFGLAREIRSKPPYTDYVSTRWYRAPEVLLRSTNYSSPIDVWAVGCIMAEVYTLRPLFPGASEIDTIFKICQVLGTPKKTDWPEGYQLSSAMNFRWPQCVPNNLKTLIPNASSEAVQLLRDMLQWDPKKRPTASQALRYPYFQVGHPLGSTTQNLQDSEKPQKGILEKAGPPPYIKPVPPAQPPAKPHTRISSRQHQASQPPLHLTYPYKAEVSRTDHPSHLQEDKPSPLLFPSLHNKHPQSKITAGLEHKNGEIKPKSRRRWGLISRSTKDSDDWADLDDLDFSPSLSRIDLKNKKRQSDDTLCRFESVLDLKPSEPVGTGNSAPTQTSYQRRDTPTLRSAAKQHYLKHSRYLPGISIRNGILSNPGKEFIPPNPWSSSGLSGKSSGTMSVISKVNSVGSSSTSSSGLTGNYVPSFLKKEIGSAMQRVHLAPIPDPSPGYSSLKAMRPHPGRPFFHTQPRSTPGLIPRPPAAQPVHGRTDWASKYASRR

PKG2/PRKG2 = target: T11, PKG2/PRKG2 (Homo sapiens, UniProt Q13237); assay: HotSpot kinase assay; format: biochemical; settings: read-out: % Enzyme Activity (relative to DMSO controls)
T11 construct: purchased Reaction Biology Corporation
T11 sequence (Q13237 whole entry): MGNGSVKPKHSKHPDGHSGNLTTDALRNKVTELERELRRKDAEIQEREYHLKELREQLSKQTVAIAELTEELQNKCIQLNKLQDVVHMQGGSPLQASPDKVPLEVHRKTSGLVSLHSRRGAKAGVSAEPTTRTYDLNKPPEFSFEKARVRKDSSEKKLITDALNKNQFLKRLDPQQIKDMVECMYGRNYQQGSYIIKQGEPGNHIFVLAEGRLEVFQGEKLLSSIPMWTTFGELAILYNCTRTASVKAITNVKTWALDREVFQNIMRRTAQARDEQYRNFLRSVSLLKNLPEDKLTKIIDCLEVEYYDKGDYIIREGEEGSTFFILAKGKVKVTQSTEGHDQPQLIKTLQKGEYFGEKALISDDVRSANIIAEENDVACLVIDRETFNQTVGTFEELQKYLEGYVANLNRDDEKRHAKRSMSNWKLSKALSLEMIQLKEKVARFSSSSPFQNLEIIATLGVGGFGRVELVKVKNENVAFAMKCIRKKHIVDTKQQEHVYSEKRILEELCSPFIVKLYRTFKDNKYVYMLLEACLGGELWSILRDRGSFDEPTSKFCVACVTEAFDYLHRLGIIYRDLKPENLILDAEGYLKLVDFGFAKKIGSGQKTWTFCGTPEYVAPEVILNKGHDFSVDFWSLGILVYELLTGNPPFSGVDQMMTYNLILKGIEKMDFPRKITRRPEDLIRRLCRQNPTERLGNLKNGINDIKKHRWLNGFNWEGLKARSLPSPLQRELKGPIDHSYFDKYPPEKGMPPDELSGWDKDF

SRPK1 = target: T12, SRPK1 (Homo sapiens, UniProt Q96SB4); assay: HotSpot kinase assay; format: biochemical; settings: read-out: % Enzyme Activity (relative to DMSO controls)
T12 construct: purchased Reaction Biology Corporation

CDK2/cyclin E2 = target: T13, CDK2/cyclin E2 (Homo sapiens, UniProt P24941); assay: HotSpot kinase assay; format: biochemical; settings: read-out: % Enzyme Activity (relative to DMSO controls)
T13 construct: purchased Reaction Biology Corporation

CAMK2d = target: T14, CAMK2d (Homo sapiens, UniProt Q13557); assay: HotSpot kinase assay; format: biochemical; settings: read-out: % Enzyme Activity (relative to DMSO controls)
T14 construct: purchased Reaction Biology Corporation

ALK1/ACVRL1 = target: T15, ALK1/ACVRL1 (Homo sapiens, UniProt P37023); assay: HotSpot kinase assay; format: biochemical; settings: read-out: % Enzyme Activity (relative to DMSO controls)
T15 construct: purchased Reaction Biology Corporation

HaCat cells = assay: apoptosis assay (activated caspases, SYTOX Green); format: cell-based, human; settings: 10µM
Protocol: Cell proliferation and viability were determined using the Cell Titer 96 Aqueous One Solution and optical density was determined using a SpectraMax M5e Molecular Devices multidetection microplate reader. […] The cells were then fixed and stained for activated caspases (red) and SYTOX Green (for integrity of plasma membrane) by Image-iT^TM LIVE red Poly Caspase Detection kit. Nuclei were stained with Hoechst. Images were acquired by laser confocal microscope ZeissLive/DuoScan equipped with oil immersion objectives 63 × 1.1 and captured in an optical slice of 0.37 µm with appropriate filters. Alternatively, immunoblots were prepared and probed with antibodies to cleaved PARP-1 or cleaved caspase 8.

in vitro = settings: dog, MDCK-MDR1
ITK = target: T16, ITK (Homo sapiens, UniProt Q08881); assay: HotSpot kinase assay; format: biochemical; settings: read-out: % Enzyme Activity (relative to DMSO controls)
T16 construct: purchased Reaction Biology Corporation
T16 sequence (Q08881 whole entry): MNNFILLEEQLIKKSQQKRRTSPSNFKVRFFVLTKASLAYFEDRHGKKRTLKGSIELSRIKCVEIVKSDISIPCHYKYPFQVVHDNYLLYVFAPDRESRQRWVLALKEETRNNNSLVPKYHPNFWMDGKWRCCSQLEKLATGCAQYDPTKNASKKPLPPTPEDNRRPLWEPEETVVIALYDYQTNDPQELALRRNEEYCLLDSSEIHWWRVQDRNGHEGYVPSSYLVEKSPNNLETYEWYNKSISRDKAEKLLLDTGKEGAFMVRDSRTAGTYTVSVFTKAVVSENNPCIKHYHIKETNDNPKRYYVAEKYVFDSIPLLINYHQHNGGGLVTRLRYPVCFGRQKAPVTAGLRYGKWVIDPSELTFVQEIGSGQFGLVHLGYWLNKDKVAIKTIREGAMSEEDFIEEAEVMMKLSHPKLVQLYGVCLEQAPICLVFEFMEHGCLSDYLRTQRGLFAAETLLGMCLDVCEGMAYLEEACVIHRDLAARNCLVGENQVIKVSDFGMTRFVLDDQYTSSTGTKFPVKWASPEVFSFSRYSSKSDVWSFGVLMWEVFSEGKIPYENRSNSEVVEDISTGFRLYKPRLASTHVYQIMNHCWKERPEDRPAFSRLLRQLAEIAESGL

CDK6/cyclin D1 = target: T17, CDK6/cyclin D1 (Homo sapiens, UniProt Q00534); assay: HotSpot kinase assay; format: biochemical; settings: read-out: % Enzyme Activity (relative to DMSO controls)
T17 construct: purchased Reaction Biology Corporation

CAMK1d = target: T18, CAMK1d (Homo sapiens, UniProt Q8IU85); assay: HotSpot kinase assay; format: biochemical; settings: read-out: % Enzyme Activity (relative to DMSO controls)
T18 construct: purchased Reaction Biology Corporation
T18 sequence (Q8IU85 whole entry): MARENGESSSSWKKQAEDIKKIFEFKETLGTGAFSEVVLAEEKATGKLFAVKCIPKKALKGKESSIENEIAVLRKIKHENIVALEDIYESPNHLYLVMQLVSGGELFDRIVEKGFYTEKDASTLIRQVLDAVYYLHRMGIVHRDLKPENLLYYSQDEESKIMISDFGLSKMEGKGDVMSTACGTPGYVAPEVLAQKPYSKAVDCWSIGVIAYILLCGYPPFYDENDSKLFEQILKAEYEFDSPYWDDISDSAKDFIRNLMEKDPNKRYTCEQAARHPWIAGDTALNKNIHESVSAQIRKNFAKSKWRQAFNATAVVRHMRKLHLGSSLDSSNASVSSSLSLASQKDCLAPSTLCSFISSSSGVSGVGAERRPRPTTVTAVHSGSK

ERK5/MAPK7 = target: T19, ERK5/MAPK7 (Homo sapiens, UniProt Q13164); assay: HotSpot kinase assay; format: biochemical; settings: read-out: % Enzyme Activity (relative to DMSO controls)
T19 construct: purchased Reaction Biology Corporation

P38b/MAPK11 = target: T20, P38b/MAPK11 (Homo sapiens, UniProt Q15759); assay: HotSpot kinase assay; format: biochemical; settings: read-out: % Enzyme Activity (relative to DMSO controls)
T20 construct: purchased Reaction Biology Corporation

ULK3 = target: T21, ULK3 (Homo sapiens, UniProt Q6PHR2); assay: HotSpot kinase assay; format: biochemical; settings: read-out: % Enzyme Activity (relative to DMSO controls)
T21 construct: purchased Reaction Biology Corporation
T21 sequence (Q6PHR2 whole entry): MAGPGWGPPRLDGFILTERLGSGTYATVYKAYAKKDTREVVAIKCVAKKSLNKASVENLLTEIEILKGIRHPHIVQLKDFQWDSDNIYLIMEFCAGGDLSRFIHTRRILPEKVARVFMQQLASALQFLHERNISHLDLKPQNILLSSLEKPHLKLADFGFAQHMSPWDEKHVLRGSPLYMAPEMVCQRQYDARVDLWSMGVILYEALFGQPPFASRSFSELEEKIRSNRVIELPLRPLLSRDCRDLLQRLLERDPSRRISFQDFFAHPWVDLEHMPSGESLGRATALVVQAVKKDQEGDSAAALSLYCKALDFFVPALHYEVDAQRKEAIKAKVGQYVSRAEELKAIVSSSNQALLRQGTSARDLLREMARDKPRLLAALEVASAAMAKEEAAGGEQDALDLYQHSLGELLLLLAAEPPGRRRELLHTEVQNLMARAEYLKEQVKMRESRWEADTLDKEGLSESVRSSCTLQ

ROCK1 = target: T22, ROCK1 (Homo sapiens, UniProt Q13464); assay: HotSpot kinase assay; format: biochemical; settings: read-out: % Enzyme Activity (relative to DMSO controls)
T22 construct: purchased Reaction Biology Corporation

MARK3 = target: T23, MARK3 (Homo sapiens, UniProt P27448); assay: HotSpot kinase assay; format: biochemical; settings: read-out: % Enzyme Activity (relative to DMSO controls)
T23 construct: purchased Reaction Biology Corporation

CK1a1L = target: T24, CK1a1L (Homo sapiens, UniProt Q8N752); assay: HotSpot kinase assay; format: biochemical; settings: read-out: % Enzyme Activity (relative to DMSO controls)
T24 construct: purchased Reaction Biology Corporation

P38g = target: T25, P38g (Homo sapiens, UniProt P53778); assay: HotSpot kinase assay; format: biochemical; settings: read-out: % Enzyme Activity (relative to DMSO controls)
T25 construct: purchased Reaction Biology Corporation

SIK1 = target: T26, SIK1 (Homo sapiens, UniProt P57059); assay: HotSpot kinase assay; format: biochemical; settings: read-out: % Enzyme Activity (relative to DMSO controls)
T26 construct: purchased Reaction Biology Corporation

ULK1 = target: T27, ULK1 (Homo sapiens, UniProt O75385); assay: biochemical; settings: read-out: % Enzyme Activity (relative to DMSO controls)
T27 construct: purchased Reaction Biology Corporation

Structure (SMILES): CO[C@@H]1[C@H](N(C)C(=O)CCC(=O)NCc2cn(CCCS(=O)(=O)O)nn2)C[C@H]2O[C@]1(C)n1c3ccccc3c3c4c(c5c6ccccc6n2c5c31)C(=O)NC4 [CIMSS]
- remaining activity at 10 µM (ASK1/MAP3K5): 6.25%
- HSV binding to cells (HSV-2(G) [1]): did not block
- remaining activity at 10 µM (EPHA4): 30.5%
- remaining activity at 10 µM (ERK7/MAPK15): 27.9%
- remaining activity at 10 µM (CDK14/cyclin Y (PFTK1)): 74.5%
- remaining activity at 10 µM (CK1g3): 97.2%
- remaining activity at 10 µM (EIF2AK2): 9.89%
- remaining activity at 10 µM (AXL): 3.61%
- pIC50 (AKT1; Supplementary Table 1, read-out: IC50 (Molar concentration)): 6.34
- remaining activity at 10 µM (AKT1; read-out: % Enzyme Activity (relative to DMSO controls), 10µM): 23.7%
- inhibition at 10 µM (AKT1; read-out: inhibition of Akt1): > 75%
- plaques counted at 48 h (HSV-2(G) [2]; 1 h post-temperature shift): 11 and 17
- plaques counted at 48 h (HSV-2(G) [2]; 2 h post-temperature shift): 19 and 11
- viral plaque formation (HSV-2(G) [2]; each timepoint 0.5–2 h, p < 0.001): significant reduction
- remaining activity at 10 µM (FGFR4): 4.31%
- remaining activity at 10 µM (LCK2/ICK): 4.57%
- remaining activity at 10 µM (PKG2/PRKG2): 1.99%
- remaining activity at 10 µM (SRPK1): 9.17%
- remaining activity at 10 µM (CDK2/cyclin E2): 11.8%
- remaining activity at 10 µM (CAMK2d): 1.33%
- remaining activity at 10 µM (ALK1/ACVRL1): 70%
- induction of apoptosis (HaCat cells): did not induce apoptosis
- Papp at 1 h, 5 μM (in vitro): 0.1 ×10⁻⁶ cm/s
- remaining activity at 10 µM (ITK): 4.12%
- remaining activity at 10 µM (CDK6/cyclin D1): 63%
- remaining activity at 10 µM (CAMK1d): 20.3%
- remaining activity at 10 µM (ERK5/MAPK7): 84.5%
- remaining activity at 10 µM (P38b/MAPK11): 84.5%
- remaining activity at 10 µM (ULK3): 14.2%
- remaining activity at 10 µM (ROCK1): 26.2%
- remaining activity at 10 µM (MARK3): 1.8%
- remaining activity at 10 µM (CK1a1L): 82.8%
- remaining activity at 10 µM (P38g): 30.3%
- remaining activity at 10 µM (SIK1): 1%
- remaining activity at 10 µM (ULK1): 13.6%
